Laboratory results: PubChem BioAssay (NCI)
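Dose response: 5 concentrations. Exposure: 48 h. Format: 96-well plates. Endpoint: linear interpolation; highest concentration if not reached. GI50 = concentration required for 50% inhibition of growth. TGI is the concentration that stops growth completely.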

Tests used:
Test in all cases: inhibition of tumour cell growth, NCI panel, 48 h
[1] = test system: SF-295 CNS
[2] = test system: NCI-H226 lung
[3] = test system: CCRF-CEM leukemia
[4] = test system: HS 578T breast
[5] = test system: HCC-2998 colon
[6] = test system: MDA-MB-435
[7] = test system: NCI-H23 lung
[8] = test system: LOX IMVI melanoma
[9] = test system: UACC-257 melanoma
[10] = test system: U251 CNS
[11] = test system: HCT-116 colon
[12] = test system: OVCAR-8 ovarian
[13] = test system: SN12C renal
[14] = test system: NCI/ADR-RES ovarian
[15] = test system: ACHN renal
[16] = test system: MDA-MB-231 breast
[17] = test system: BT-549 breast
[18] = test system: HL-60(TB) leukemia
[19] = test system: NCI-H460 lung
[20] = test system: KM12 colon
[21] = test system: K-562 leukemia
[22] = test system: OVCAR-5 ovarian
[23] = test system: NCI-H522 lung
[24] = test system: TK-10 renal
[25] = test system: UO-31 renal
[26] = test system: RPMI-8226 leukemia
[27] = test system: OVCAR-4 ovarian
[28] = test system: T-47D breast
[29] = test system: IGROV1 ovarian
[30] = test system: M14 melanoma
[31] = test system: HCT-15 colon
[32] = test system: A498 renal
[33] = test system: HOP-62 NSCLC
[34] = test system: A549 NSCLC
[35] = test system: EKVX NSCLC
[36] = test system: SR leukemia
[37] = test system: CAKI-1 renal
[38] = test system: MCF7 breast
[39] = test system: SNB-75 CNS
[40] = test system: PC-3 prostate
[41] = test system: OVCAR-3 ovarian
[42] = test system: SK-OV-3 ovarian
[43] = test system: HOP-92 NSCLC
[44] = test system: RXF 393 renal
[45] = test system: SK-MEL-2 melanoma
[46] = test system: SK-MEL-5 melanoma
[47] = test system: MOLT-4 leukemia
[48] = test system: SK-MEL-28 melanoma
[49] = test system: SNB-19 CNS
[50] = test system: DU-145 prostate
[51] = test system: COLO 205 colon
[52] = test system: SF-268 CNS
[53] = test system: MALME-3M melanoma
[54] = test system: UACC-62 melanoma
[55] = test system: SF-539 CNS
[56] = test system: 786-0 renal

SMILES: Cc1ccc2c(c1)C(=O)c1c-2n(CCCN)c(=O)c2cc([N+](=O)[O-])ccc12
- GI50 [1]: 120 nM
- TGI [1]: 663 nM
- GI50 [2]: 540 nM
- TGI [2]: 1330 nM
- GI50 [3]: 6.83 nM
- TGI [3]: 55.9 nM
- GI50 [4]: 1540 nM
- TGI [4]: 3440 nM
- GI50 [5]: 531 nM
- TGI [5]: 1170 nM
- GI50 [6]: 413 nM
- TGI [6]: 1090 nM
- GI50 [7]: 356 nM
- TGI [7]: 1160 nM
- GI50 [8]: 177 nM
- TGI [8]: 829 nM
- GI50 [9]: 1520 nM
- TGI [9]: 4970 nM
- GI50 [10]: 124 nM
- TGI [10]: 832 nM
- GI50 [11]: 166 nM
- TGI [11]: 718 nM
- GI50 [12]: 387 nM
- TGI [12]: 1330 nM
- GI50 [13]: 281 nM
- TGI [13]: 1020 nM
- GI50 [14]: 594 nM
- TGI [14]: 1450 nM
- GI50 [15]: 106 nM
- TGI [15]: 609 nM
- GI50 [16]: 293 nM
- TGI [16]: 827 nM
- GI50 [17]: 746 nM
- TGI [17]: 1570 nM
- GI50 [18]: 28.5 nM
- TGI [18]: 327 nM
- GI50 [19]: 34.9 nM
- TGI [19]: 629 nM
- GI50 [20]: 433 nM
- TGI [20]: 1230 nM
- GI50 [21]: 110 nM
- TGI [21]: 721 nM
- GI50 [22]: 873 nM
- TGI [22]: 1580 nM
- GI50 [23]: 200 nM
- TGI [23]: 985 nM
- GI50 [24]: 567 nM
- TGI [24]: 1240 nM
- GI50 [25]: 144 nM
- TGI [25]: 811 nM
- GI50 [26]: 19.9 nM
- TGI [26]: 226 nM
- GI50 [27]: 605 nM
- TGI [27]: 1260 nM
- GI50 [28]: 157 nM
- TGI [28]: 461 nM
- GI50 [29]: 176 nM
- TGI [29]: 985 nM
- GI50 [30]: 452 nM
- TGI [30]: 1160 nM
- GI50 [31]: 351 nM
- TGI [31]: 1010 nM
- GI50 [32]: 5680 nM
- TGI [32]: 17100 nM
- GI50 [33]: 38.9 nM
- TGI [33]: 428 nM
- GI50 [34]: 200 nM
- TGI [34]: 887 nM
- GI50 [35]: 917 nM
- TGI [35]: 2220 nM
- GI50 [36]: 39.4 nM
- TGI [36]: 201 nM
- GI50 [37]: 71.6 nM
- TGI [37]: 419 nM
- GI50 [38]: 113 nM
- TGI [38]: 836 nM
- GI50 [39]: 385 nM
- TGI [39]: 1070 nM
- GI50 [40]: 437 nM
- TGI [40]: 1170 nM
- GI50 [41]: 521 nM
- TGI [41]: 1320 nM
- GI50 [42]: 147 nM
- TGI [42]: 502 nM
- GI50 [43]: 435 nM
- TGI [43]: 1180 nM
- GI50 [44]: 627 nM
- TGI [44]: 1310 nM
- GI50 [45]: 1370 nM
- TGI [45]: 4150 nM
- GI50 [46]: 1100 nM
- TGI [46]: 3600 nM
- GI50 [47]: 24.4 nM
- TGI [47]: 129 nM
- GI50 [48]: 2270 nM
- TGI [48]: 4630 nM
- GI50 [49]: 178 nM
- TGI [49]: 706 nM
- GI50 [50]: 262 nM
- TGI [50]: 890 nM
- GI50 [51]: 178 nM
- TGI [51]: 913 nM
- GI50 [52]: 37.3 nM
- TGI [52]: 555 nM
- GI50 [53]: 752 nM
- TGI [53]: 1710 nM
- GI50 [54]: 522 nM
- TGI [54]: 1110 nM
- GI50 [55]: 732 nM
- TGI [55]: 1440 nM
- GI50 [56]: 57.6 nM
- TGI [56]: 208 nM
